These results are taken from ChEMBL document CHEMBL1144235, “Aminostyrylbenzofuran derivatives as potent inhibitors for Abeta fibril formation” (Bioorg Med Chem Lett, 2008).

The structures appear in SMILES notation.

The target in the test is Amyloid-beta precursor protein (Homo sapiens, UniProt P05067). In words: Inhibition of amyloid beta42 fibril formation by thioflavin T formation.
Chain of Amyloid-beta precursor protein (P05067 whole entry): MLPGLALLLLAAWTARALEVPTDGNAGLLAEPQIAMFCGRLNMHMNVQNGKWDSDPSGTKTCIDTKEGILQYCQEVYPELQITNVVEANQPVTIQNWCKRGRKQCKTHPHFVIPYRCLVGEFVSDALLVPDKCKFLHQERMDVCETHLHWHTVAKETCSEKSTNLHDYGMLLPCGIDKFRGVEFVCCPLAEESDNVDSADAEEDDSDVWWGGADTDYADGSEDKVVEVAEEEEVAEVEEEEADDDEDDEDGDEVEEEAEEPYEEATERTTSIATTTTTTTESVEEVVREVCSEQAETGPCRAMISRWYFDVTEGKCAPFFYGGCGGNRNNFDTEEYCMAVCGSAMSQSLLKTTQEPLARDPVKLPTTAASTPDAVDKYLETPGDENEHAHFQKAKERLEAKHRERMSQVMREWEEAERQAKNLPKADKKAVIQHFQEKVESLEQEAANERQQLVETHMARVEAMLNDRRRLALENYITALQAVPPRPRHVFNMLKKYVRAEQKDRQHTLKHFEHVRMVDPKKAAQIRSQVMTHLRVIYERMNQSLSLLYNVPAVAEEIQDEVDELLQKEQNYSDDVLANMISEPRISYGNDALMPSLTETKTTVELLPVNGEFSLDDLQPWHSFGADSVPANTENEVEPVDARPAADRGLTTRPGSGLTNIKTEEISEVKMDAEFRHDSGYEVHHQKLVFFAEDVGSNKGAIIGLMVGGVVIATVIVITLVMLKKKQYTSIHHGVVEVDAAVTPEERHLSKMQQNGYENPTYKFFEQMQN
Regarding `CN(C)c1ccc(/C=C/c2cc3ccc(F)cc3o2)cc1`, it took 2190 nM to reach half-maximal inhibition (IC50).

Turning to `Cc1ccc2cc(/C=C/c3ccc(N(C)C)cc3)oc2c1`, half-maximal inhibition (IC50) was put at 3440 nM.

For the compound `CN(C)c1ccc(/C=C/c2cc3cc(I)ccc3o2)cc1`, the IC50 (usually the concentration needed to halve the response being measured) was 170 nM.

In the case of `CN(C)c1ccc(/C=C/c2cc3cc(F)ccc3o2)cc1`, half-maximal inhibition (IC50) required 1980 nM.

As to `COc1ccc2oc(/C=C/c3ccc(N(C)C)c(OC)c3)cc2c1`, the IC50 was 160 nM.

In the case of `Cc1ccc2oc(/C=C/c3ccc(N(C)C)cc3)cc2c1`, the IC50 is 130 nM.

The compound `CN(C)c1ccc(/C=C/c2cc3ccc(I)cc3o2)cc1` had an IC50 of 2800 nM. Against the preceding compound, the IC50 is about 22-fold higher.

`CN(C)c1ccc(/C=C/c2cc3cc(O)ccc3o2)cc1` showed an IC50 of 160 nM.

`CN(C)c1ccc(/C=C/c2cc3cc(Br)ccc3o2)cc1` registered an IC50 of 470 nM.

`CNc1ccc(/C=C/c2cc3cc(OC)ccc3o2)cc1` gave a concentration for half-maximal inhibition (IC50) of 80 nM.

Compound `CNc1ccc(/C=C/c2cc3cc(O)ccc3o2)cc1` had an IC50 of 2160 nM. This IC50 is about 27-fold higher than that of the compound before.

`CN(C)c1ccc(/C=C/c2cc3ccc(Br)cc3o2)cc1` returned an IC50 of 1340 nM.

Take `CN(C)c1ccc(/C=C/c2cc3ccc(O)cc3o2)cc1`: the IC50 was 3620 nM.

Regarding `COc1ccc2cc(/C=C/c3ccc(N)cc3)oc2c1`, the half-maximal inhibitory concentration (IC50) amounted to 5440 nM.

Compound `Nc1ccc(/C=C/c2cc3cc(O)ccc3o2)cc1` displayed a concentration for half-maximal inhibition (IC50) of 2950 nM.

Consider `CNc1ccc(/C=C/c2cc3ccc(OC)cc3o2)cc1`, for which the midpoint of inhibition, the IC50, lay at 800 nM. This IC50 lies about 3.7-fold lower than the previous one.

As to `COc1ccc2oc(/C=C/c3ccc(N)cc3)cc2c1`, half-maximal inhibition (IC50) required 820 nM.

In turn, `COc1ccc2oc(/C=C/c3ccc(N(C)C)cc3)cc2c1` registered an IC50 of 810 nM.

`CN(C)c1ccc(/C=C/c2cc3ccccc3o2)cc1` returned an IC50 of 2300 nM. Compared with the last compound, the IC50 is about 2.8-fold higher.

The compound `COc1ccc2cc(/C=C/c3ccc(N(C)C)cc3)oc2c1` showed a half-inhibitory concentration (IC50) of 70 nM.

Consider `CN(C)c1ccc(/C=C/c2cc3ccc(Cl)cc3o2)cc1`, for which inhibition was half-maximal at 3210 nM (IC50).

For `COc1ccc2cc(/C=C/c3ccc(N(C)C)c(OC)c3)oc2c1`, the IC50 was determined as 530 nM.

The compound `CN(C)c1ccc(/C=C/c2cc3cc(Cl)ccc3o2)cc1` had an IC50 of 200 nM.
